Assay results taken from PMC11111955, “Safety and efficacy evaluation of halicin as an effective drug for inhibiting intestinal infections” (Frontiers in Pharmacology, 2024).
In brackets after ≈: the same amount, converted by molar mass. Entries after “also recorded” stand apart in the source; their conditions may differ. Read-outs that look alike come from different tables or passages of the source.

Key:
[1] = test system: Salmonella (CVCC 3377); assay: Minimum inhibitory concentration (MIC); type: cell-based
[2] = test system: E. coli (ATCC 25922); assay: Minimum inhibitory concentration (MIC); type: cell-based, Escherichia coli
Procedure: (§1) The test strains were inoculated on the corresponding solid medium and incubated overnight at 37°C. A single colony was picked from the medium and inoculated into Luria Broth (LB), and then incubated overnight at 37°C with shaking at 220 rpm. The bacterial suspension was diluted to 0.5 McFarland turbidity with Mueller Hinton broth (MHB), and then dilute 100 times for later use. Halicin was added to the 96-well plate, and diluted it to concentrations of 128, 64, 32, 16, 8, 4, 2, 1, 0.5, 0.25, 0.125, and 0 μg/mL by gradient. The 96-well plate was incubated at 37°C for 16 h, followed by observing and recording the results. The MIC was determined as the concentration at which there was no visible colony growth was observed.

[3] = test system: MRSA (BNCC 337371); assay: Minimum inhibitory concentration (MIC); type: cell-based, Staphylococcus aureus
[4] = test system: Escherichia coli (ATCC 25922); assay: Growth kinetics curve; type: cell-based
[5] = test system: Klebsiella pneumoniae (ATCC 4352); assay: Growth kinetics curve; type: cell-based; details: 1/2 × to 4 × MIC
[6] = test system: R. anatipestifer (ATCC 11845); assay: Minimum inhibitory concentration (MIC); type: cell-based, Riemerella anatipestifer
[7] = test system: MRSA (ATCC 43300); assay: Minimum inhibitory concentration (MIC); type: cell-based, Staphylococcus aureus
[8] = test system: bone marrow polychromatic erythrocytes; assay: Micronucleus experiment of mammalian bone marrow cells
[9] = test system: rats; assay: 90-Day subchronic toxicity assay
[10] = test system: S. aureus (ATCC 29213); assay: Growth kinetics curve; type: cell-based, Staphylococcus aureus
[11] = test system: E. faecalis (ATCC 29212); assay: Minimum inhibitory concentration (MIC); type: cell-based, Enterococcus faecalis
Procedure: as §1

[12] = test system: mouse bone marrow cells; details: for Chromosome aberration (%) / Number of cells with chromosome aberration: ICR mice, oral; for Number of cells with chromosome aberration: of 5 × 100 cells at metaphase
[13] = test system: S. pneumoniae (ATCC 49619); assay: Minimum inhibitory concentration (MIC); type: cell-based, Streptococcus pneumoniae
Procedure: as §1

[14] = test system: K. pneumoniae (ATCC 4352); assay: Minimum inhibitory concentration (MIC); type: cell-based, Klebsiella pneumoniae
Procedure: as §1

[15] = test system: Proteus (CMCC (B) 49027); assay: Growth kinetics curve; type: cell-based; details: 1/2 × to 4 × MIC
[16] = test system: TA100; assay: Ames test; type: cell-based, Salmonella typhimurium
Procedure: (§2) The experiments were performed in triplicate.

[17] = test system: TA97a; assay: Ames test; type: cell-based, Salmonella typhimurium
Procedure: as §2

[18] = test system: TA98; assay: Ames test; type: cell-based, Salmonella typhimurium
Procedure: as §2

[19] = test system: H. parasuis (ATCC 19417); assay: Minimum inhibitory concentration (MIC); type: cell-based
Procedure: as §1

[20] = test system: Streptococcus suis (ATCC 43765); assay: Minimum inhibitory concentration (MIC); type: cell-based
Procedure: as §1

[21] = test system: Proteus (CMCC (B) 49027); assay: Minimum inhibitory concentration (MIC); type: cell-based
Procedure: as §1

[22] = test system: S. flexneri (CMCC 51572); assay: Minimum inhibitory concentration (MIC); type: cell-based
Procedure: as §1

[23] = test system: other bacteria (except Bacillus subtilis and Pseudomonas aeruginosa); assay: MIC, panel of Table 1 as summarised in the text; type: cell-based; details: bacteria of Table 1 except Bacillus subtilis and Pseudomonas aeruginosa
[24] = test system: A. baumannii (ATCC 19606); assay: Minimum inhibitory concentration (MIC); type: cell-based, Acinetobacter baumannii
Procedure: as §1

[25] = test system: E. coli (ATCC 25922); assay: Multipassage resistance study (continuous induction); details: after multipassage induction
[26] = Female mice, High-does (1009.1) mg/kg
[27] = Female mice, Low-does (252.3) mg/kg
[28] = Female mice, Medium-does (504.6) mg/kg
[29] = Male mice, High-does (1009.1) mg/kg
[30] = Male mice, Low-does (252.3) mg/kg
[31] = Male mice, Medium-does (504.6) mg/kg

## Nc1nnc(Sc2ncc([N+](=O)[O-])s2)s1 [halicin]
[1]
  MIC: 8 µg/mL (≈ 30.6 µM)
[2]
  MIC: 8 µg/mL (≈ 30.6 µM)
[3]
  MIC: 8 µg/mL (≈ 30.6 µM)
[4]; 1/2 × MIC, E. coli (ATCC 25922)
  growth in growth kinetics curve assay: significantly inhibited during the initial 16 h
[4]; 4 × MIC, after 20 h
  growth in growth kinetics curve assay: still proliferated significantly
[5]
  growth in growth kinetics curve assay: completely inhibited
[6]; R. anatipestife (ATCC 11845), second listing
  MIC: 8 µg/mL (≈ 30.6 µM)
[6]; R. anatipestifer (ATCC 11845), first listing
  MIC: 4 µg/mL (≈ 15.3 µM)
[7]
  MIC: 8 µg/mL (≈ 30.6 µM)
[8]; [26]
  PCE micronucleus (‰): 2.2 ± 0.8 ‰
  PCE/RBC: 0.72 ± 0.08
[8]; [27]
  PCE micronucleus (‰): 1.2 ± 0.4 ‰
  PCE/RBC: 1.09 ± 0.06
[8]; [28]
  PCE micronucleus (‰): 0.8 ± 0.4 ‰
  PCE/RBC: 1.06 ± 0.07
[8]; [29]
  PCE micronucleus (‰): 0.8 ± 0.8 ‰
  PCE/RBC: 0.76 ± 0.03
[8]; [30]
  PCE micronucleus (‰): 0.6 ± 0.5 ‰
  PCE/RBC: 1.07 ± 0.09
[8]; [31]
  PCE micronucleus (‰): 1 ± 0.7 ‰
  PCE/RBC: 1.08 ± 0.11
[8]; high-dose (1009.1 mg/kg), p < 0.01
  micronucleus ratio compared with the negative control group: significant difference
[8]; medium (504.6 mg/kg) and low-dose (252.3 mg/kg), p > 0.05
  micronucleus ratio compared with the negative control group: no significant difference
[9]; all dosage groups
  water consumption and mental states: no significant changes
[9]; all halicin treatment groups, 90 days, p > 0.05
  body weight of female rats compared with the control group: no significant difference
[9]; any experimental group (50.5-201.8 mg/kg), 90 days
  mortality: No mortality
[9]; end of the experiment, all treatment groups, p > 0.05
  weight of organs compared with the control group: no significant difference
[9]; from the safety assessment
  maximum safe concentration: 50.5 mg/kg
[9]; high dose 201.8 mg/kg, 201.8 mg/kg
  kidney findings (autopsy, HE sections): slight renal inflammation; also recorded: kidney lesions
[9]; high-dose group (201.8 mg/kg), oral, 90 days, p < 0.05
  body weight of male rats compared with the control group: significantly lower
[9]; high-dose, p < 0.01
  serum ALT and AST levels compared with the control group: significantly reduced
[9]; low-dose group (50.5 mg/kg), p > 0.05
  diet compared with the control group: No significant differences
[9]; rats, oral, 90 days
  dosages with good safety and tolerability: below 50.5 mg/kg
[10]; 1 × MIC
  growth in growth kinetics curve assay: started to grow rapidly after 16 h
[10]; 4 × MIC, after 20 h
  growth in growth kinetics curve assay: still proliferated significantly
[10]; against S. aureus
  type of antibacterial action: bacteriostatic rather than a bactericidal agent
[11]
  MIC: 4 µg/mL (≈ 15.3 µM)
[12]; 252.3 mg/kg to 1009.1 mg/kg, p > 0.05 vs negative control
  teratogenic effect on bone marrow cells: no significant teratogenic effect
[12]; High-does (1009.1) mg/kg
  Chromosome aberration (%): 1.4 ± 0.55%
  Number of cells with chromosome aberration: 7
[12]; Low-does (252.3) mg/kg
  Chromosome aberration (%): 1.4 ± 1.14%
  Number of cells with chromosome aberration: 7
[12]; Medium-does (504.6) mg/kg
  Chromosome aberration (%): 1.6 ± 0.89%
  Number of cells with chromosome aberration: 8
[13]
  MIC: 0.5 µg/mL (≈ 1.91 µM)
[14]
  MIC: 8 µg/mL (≈ 30.6 µM)
[15]
  growth in growth kinetics curve assay: completely inhibited
[16]; TA100, +S9, 5.6 μg/plate
  Ames test bacterial counts: 171 ± 11.3
[16]; TA100, +S9, 11.2 μg/plate
  Ames test bacterial counts: 152 ± 12.7
[16]; TA100, +S9, 22.5 μg/plate
  Ames test bacterial counts: 0 ± 0
[16]; TA100, +S9, 45 μg/plate
  Ames test bacterial counts: 0 ± 0
[16]; TA100, -S9, 5.6 μg/plate
  Ames test bacterial counts: 121 ± 9.9
[16]; TA100, -S9, 11.2 μg/plate
  Ames test bacterial counts: 0 ± 0
[16]; TA100, -S9, 22.5 μg/plate
  Ames test bacterial counts: 0 ± 0
[16]; TA100, -S9, 45 μg/plate
  Ames test bacterial counts: 0 ± 0
[17]; +S9, 5.6 μg/plate
  Ames test bacterial counts: 145 ± 5.7
[17]; +S9, 11.2 μg/plate
  Ames test bacterial counts: 151 ± 11.3
[17]; +S9, 22.5 μg/plate
  Ames test bacterial counts: 31 ± 8.5
[17]; +S9, 45 μg/plate
  Ames test bacterial counts: 0 ± 0
[17]; -S9, 5.6 μg/plate
  Ames test bacterial counts: 82 ± 14.1
[17]; -S9, 11.2 μg/plate
  Ames test bacterial counts: 115 ± 8.5
[17]; -S9, 22.5 μg/plate
  Ames test bacterial counts: 0 ± 0
[17]; -S9, 45 μg/plate
  Ames test bacterial counts: 0 ± 0
[18]; TA98, +S9, 5.6 μg/plate
  Ames test bacterial counts: 30 ± 12.7
[18]; TA98, +S9, 11.2 μg/plate
  Ames test bacterial counts: 43 ± 8.5
[18]; TA98, +S9, 22.5 μg/plate
  Ames test bacterial counts: 53 ± 7.1
[18]; TA98, +S9, 45 μg/plate
  Ames test bacterial counts: 0 ± 0
[18]; TA98, -S9, 5.6 μg/plate
  Ames test bacterial counts: 27 ± 2.8
[18]; TA98, -S9, 11.2 μg/plate
  Ames test bacterial counts: 61 ± 14.1
[18]; TA98, -S9, 22.5 μg/plate
  Ames test bacterial counts: 55 ± 5.7
[18]; TA98, -S9, 45 μg/plate
  Ames test bacterial counts: 0 ± 0
[19]
  MIC: 8 µg/mL (≈ 30.6 µM)
[20]
  MIC: 4 µg/mL (≈ 15.3 µM)
[21]
  MIC: 8 µg/mL (≈ 30.6 µM)
[22]
  MIC: 8 µg/mL (≈ 30.6 µM)
[23]
  MIC against other bacteria: less than 8 μg/mL
[24]
  MIC: 8 µg/mL (≈ 30.6 µM)
[25]
  MIC of ECR (E. coli ATCC 25922 resistant strains): 32 µg/mL
